Measured values: patent US8802597B2, “Herbicidal pyrimidines” (E I du Pont de Nemours and Company, priority 2003, dated 2014)
Read-outs that look alike come from different tables or passages of the source.

How the values were obtained:
Type in all cases: in vivo
[1] = test system: kochia (Kochia scoparia); assay: Test C pre/postemergence; settings: Bassia scoparia, pre-emergence, Preemergence, 250 g ai/ha; scale 0 to 100; read-out: Plant response rating, Kochia
Outline: (§1)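 Applications: preemergence onto seeded soil and postemergence onto 1- to 4-leaf seedlings, compound carried in non-phytotoxic solvent plus surfactant. Kept in greenhouse 12 to 14 days. Scored visually relative to untreated controls, 0 (no effect) to 100 (complete control).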

[2] = test system: Surinam grass (Brachiaria decumbens); assay: Test C pre/postemergence; settings: Urochloa decumbens; for pest or weed control at 125 g/ha: 125 g ai/ha; for pest or weed control at 62 g/ha: 62 g ai/ha
Outline: as §1

[3] = test system: pigweed (Amaranthus retroflexus); assay: Test C pre/postemergence; settings: Amaranthus retroflexus; for pest or weed control at 31 g/ha: 31 g ai/ha; for pest or weed control at 62 g/ha: 62 g ai/ha; for pest or weed control at 125 g/ha: 125 g ai/ha; for pest or weed control at 250 g/ha: 250 g ai/ha
Outline: as §1

[4] = test system: yellow nutsedge (Cyperus esculentus); assay: Test C pre/postemergence; settings: Cyperus; for pest or weed control at 31 g/ha: 31 g ai/ha; for pest or weed control at 62 g/ha: 62 g ai/ha; for pest or weed control at 125 g/ha: 125 g ai/ha; for pest or weed control at 250 g/ha: 250 g ai/ha
Outline: as §1

[5] = test system: common ragweed (Ambrosia elatior); assay: Test C pre/postemergence; settings: Ambrosia artemisiifolia; for pest or weed control at 31 g/ha: 31 g ai/ha; for pest or weed control at 62 g/ha: 62 g ai/ha; for pest or weed control at 125 g/ha: 125 g ai/ha; for pest or weed control at 250 g/ha: 250 g ai/ha
Outline: as §1

[6] = test system: johnsongrass (Sorghum halepense); assay: Test C pre/postemergence; settings: Sorghum halepense; for pest or weed control at 31 g/ha: 31 g ai/ha; for pest or weed control at 62 g/ha: 62 g ai/ha; for pest or weed control at 125 g/ha: 125 g ai/ha; for pest or weed control at 250 g/ha: 250 g ai/ha
Outline: as §1

[7] = test system: chickweed (Stellaria media); assay: Test C postemergence; settings: Stellaria media, post-emergence
Outline: as §1

[8] = post-emergence, Postemergence, scale 0 to 100 (0 no effect, 100 complete control), read-out: Surinam Grass plant response rating
[9] = post-emergence, Postemergence, scale 0 to 100 (0 no effect, 100 complete control), read-out: Pigweed plant response rating
[10] = pre-emergence, Preemergence, scale 0 to 100, 0 no effect, 100 complete control, read-out: Plant response rating, Pigweed
[11] = pre-emergence, Preemergence, scale 0 to 100, read-out: Plant response rating, Pigweed
[12] = post-emergence, Postemergence, scale 0 to 100 (0 no effect, 100 complete control), read-out: Nutsedge, Yellow plant response rating
[13] = pre-emergence, Preemergence, scale 0 to 100, 0 no effect, 100 complete control, read-out: Plant response rating, Nutsedge, Yellow
[14] = pre-emergence, Preemergence, scale 0 to 100, read-out: Plant response rating, Nutsedge, Yellow
[15] = post-emergence, Postemergence, scale 0 to 100 (0 no effect, 100 complete control), read-out: Ragweed plant response rating
[16] = pre-emergence, Preemergence, scale 0 to 100, 0 no effect, 100 complete control, read-out: Plant response rating, Ragweed
[17] = pre-emergence, Preemergence, scale 0 to 100, read-out: Plant response rating, Ragweed
[18] = post-emergence, Postemergence, scale 0 to 100 (0 no effect, 100 complete control), read-out: Johnsongrass plant response rating
[19] = pre-emergence, Preemergence, scale 0 to 100, 0 no effect, 100 complete control, read-out: Plant response rating, Johnsongrass
[20] = pre-emergence, Preemergence, scale 0 to 100, read-out: Plant response rating, Johnsongrass

With `CCOC(=O)c1nc(-c2ccc(Cl)cc2)nc(N)c1Cl` [Compound 64, ethyl 6-amino-5-chloro-2-(4-chlorophenyl)-4-pyrimidinecarboxylate] the pest or weed control at 250 g/ha [1] was 70%, the pest or weed control at 125 g/ha [2, 8] was 60% and the pest or weed control at 31 g/ha ([2]; post-emergence, Postemergence, 31 g ai/ha, read-out: Plant response rating (scale of 0 to 100), Surinam Grass) was 20%. It also gave a pest or weed control at 62 g/ha [2, 8] of 60%, a pest or weed control at 62 g/ha ([2]; pre-emergence, Preemergence, scale 0 to 100, 0 no effect, 100 complete control, read-out: Plant response rating, Surinam Grass) of 0% and a pest or weed control at 125 g/ha ([2]; pre-emergence, Preemergence, scale 0 to 100, read-out: Plant response rating, Surinam Grass) of 50%. The pest or weed control at 250 g/ha ([2]; pre-emergence, Preemergence, 250 g ai/ha, scale 0 to 100, read-out: Plant response rating, Surinam Grass) was 90%, the pest or weed control at 31 g/ha ([3]; post-emergence, Postemergence, read-out: Plant response rating (scale of 0 to 100), Pigweed) was 85% and the pest or weed control at 62 g/ha [3, 9] was 95%. It also gave a pest or weed control at 125 g/ha [3, 9] of 100%, a pest or weed control at 250 g/ha ([3]; post-emergence, Postemergence, scale 0 to 100, read-out: Plant response rating, Pigweed) of 100% and a pest or weed control at 31 g/ha [3, 10] of 10%. It also gave a pest or weed control at 62 g/ha [3, 10] of 30%, a pest or weed control at 125 g/ha [3, 11] of 100% and a pest or weed control at 250 g/ha [3, 11] of 100%. It also gave a pest or weed control at 31 g/ha ([4]; post-emergence, Postemergence, read-out: Plant response rating (scale of 0 to 100), Nutsedge, Yellow) of 40%, a pest or weed control at 62 g/ha [4, 12] of 50% and a pest or weed control at 125 g/ha [4, 12] of 50%. For the same compound, the pest or weed control at 250 g/ha ([4]; post-emergence, Postemergence, scale 0 to 100, read-out: Plant response rating, Nutsedge, Yellow) was 50%, the pest or weed control at 31 g/ha [4, 13] was 0% and the pest or weed control at 62 g/ha [4, 13] was 0%. For the same compound, the pest or weed control at 125 g/ha [4, 14] was 0%, the pest or weed control at 250 g/ha [4, 14] was 10% and the pest or weed control at 31 g/ha ([5]; post-emergence, Postemergence, read-out: Plant response rating (scale of 0 to 100), Ragweed) was 75%. The pest or weed control at 62 g/ha [5, 15] was 80%, the pest or weed control at 125 g/ha [5, 15] was 85% and the pest or weed control at 250 g/ha ([5]; post-emergence, Postemergence, scale 0 to 100, read-out: Plant response rating, Ragweed) was 90%. It also gave a pest or weed control at 31 g/ha [5, 16] of 85%, a pest or weed control at 62 g/ha [5, 16] of 85% and a pest or weed control at 125 g/ha [5, 17] of 95%. It also gave a pest or weed control at 250 g/ha [5, 17] of 100%, a pest or weed control at 31 g/ha ([6]; post-emergence, Postemergence, read-out: Plant response rating (scale of 0 to 100), Johnsongrass) of 60% and a pest or weed control at 62 g/ha [6, 18] of 80%. It also gave a pest or weed control at 125 g/ha [6, 18] of 85%, a pest or weed control at 250 g/ha ([6]; post-emergence, Postemergence, scale 0 to 100, read-out: Plant response rating, Johnsongrass) of 85% and a pest or weed control at 31 g/ha [6, 19] of 5%. For the same compound, the pest or weed control at 62 g/ha [6, 19] was 5%, the pest or weed control at 125 g/ha [6, 20] was 50% and the pest or weed control at 250 g/ha [6, 20] was 60%. For the same compound, the pest or weed control at 31 g/ha ([7]; 31 g ai/ha, read-out: Plant response rating (scale of 0 to 100), Chickweed) was 0%, the pest or weed control at 62 g/ha ([7]; 62 g ai/ha, scale 0 to 100 (0 no effect, 100 complete control), read-out: Chickweed plant response rating) was 0% and the pest or weed control at 125 g/ha ([7]; 125 g ai/ha, scale 0 to 100 (0 no effect, 100 complete control), read-out: Chickweed plant response rating) was 0%. The pest or weed control at 250 g/ha ([7]; 250 g ai/ha, scale 0 to 100, read-out: Plant response rating, Chickweed) was 55%.
